Paper PMC12072072 (International Journal of Molecular Sciences, 2025)

Columns and labels:
[1] = tested on: HDFs (human dermal fibroblasts); settings: MTT assay, published earlier, ref [41], read-out: IC50 [μM] (±s) HDFs; cited from earlier work
[2] = tested on: CHO (Chinese hamster ovary); assay: MTT assay, CHO cells; format: cell-based; settings: Cricetulus griseus, CHO, MTT assay, CHO cells, value (standard deviation); read-out: IC50 [μM] (±s) CHO
Experimental: Each medium was supplemented with 10% fetal bovine serum, 1% L-glutamine, and 1% penicillin/streptomycin solution. The cell lines were incubated at 37 °C in a humidified atmosphere containing 5% CO2. Cells were counted using the Fuchs–Rosenthal counting chamber (hemocytometer) with modifications.
The final product of this reaction gives violet formazan crystals. The number of live cells is proportional to the amount of formazan and is represented by the violet dye reagent. The details of the experiments are given, e.g., in [54].
Statistical analyses for the cytotoxic activity were carried out using the nonparametric Kruskal–Wallis H test for unpaired data and ANOVA Friedman two-way analysis of variance test for paired data. Statistical significance was tested using Dunn’s post-hoc test. The IC50 values compared to the control IC50 were calculated using GraphPad Prism v. 10.1.1. software.

[3] = tested on: SKOV-3 (human ovarian carcinoma); settings: MTT assay, SKOV-3 cells; published earlier; ref [41]; read-out: IC50 [μM] (±s) SKOV-3; cited from earlier work

SMILES: CC1(C)CC[C@]2(C(=O)O)CC[C@]3(C)C(=CC[C@@H]4[C@@]5(C)CC[C@H](O)C(C)(C)[C@@H]5CC[C@]43C)[C@@H]2C1 [Compound 1, oleanolic acid]
- IC50 [1]: 24.9 µM
- IC50 [2]: 9.16 µM
- IC50 [3]: 18.8 µM
